Measured values taken from the supplement of paper PMC10307832.

Key:
Test in all cases: relative viability (nuclei count vs DMSO), 5 days (fraction); higher = more cells survive
Kobe2602 + Palbociclib = compound: C1=CC(=CC=C1NC(=S)NNC2=C(C=C(C=C2[N+](=O)[O-])C(F)(F)F)[N+](=O)[O-])F [Kobe2602] + CC(=O)c1c(C)c2cnc(Nc3ccc(N4CCNCC4)cn3)nc2n(C2CCCC2)c1=O [Palbociclib] (partner 0.5 µM)
How it was run: (§1)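 Lung cancer cell lines were pin-tool dosed in 1536-well plates on the day after seeding, with either a lone drug or a fixed anchor-drug dose plus five library-drug doses (not always all listed) in √10 steps. Nuclei were counted on 4× images after 5 days. Relative viability is the ratio of treated-well to vehicle-well nuclei counts, with each value a median of duplicate plates.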

[1] = compound: COc1cc2nccc(Oc3ccc(NC(=O)C4(C(=O)Nc5ccc(F)cc5)CC4)cc3)c2cc1OC [Cabozantinib] + CC(C)C[C@H](NC(=O)[C@H](Cc1ccccc1)NC(=O)c1cnccn1)B(O)O [Bortezomib] (partner 0.002 µM)
How it was run: as §1

Cabozantinib + Foretinib = compound: COc1cc2nccc(Oc3ccc(NC(=O)C4(C(=O)Nc5ccc(F)cc5)CC4)cc3)c2cc1OC [Cabozantinib] + COc1cc2c(Oc3ccc(NC(=O)C4(C(=O)Nc5ccc(F)cc5)CC4)cc3F)ccnc2cc1OCCCN1CCOCC1 [Foretinib] (partner 0.25 µM)
How it was run: as §1

Cabozantinib + Lapatinib = compound: COc1cc2nccc(Oc3ccc(NC(=O)C4(C(=O)Nc5ccc(F)cc5)CC4)cc3)c2cc1OC [Cabozantinib] + CS(=O)(=O)CCNCc1ccc(-c2ccc3ncnc(Nc4ccc(OCc5cccc(F)c5)c(Cl)c4)c3c2)o1 [Lapatinib] (partner 2 µM)
How it was run: as §1

| Cell Line | relative viability (Kobe2602 + Palbociclib; first compound 0.2 µM) | relative viability (Kobe2602 + Palbociclib; first compound 0.6325 µM) | relative viability (Kobe2602 + Palbociclib; first compound 2 µM) | relative viability (Kobe2602 + Palbociclib; first compound 6.325 µM) | relative viability (Kobe2602 + Palbociclib; first compound 20 µM) | relative viability ([1]; first compound 0.02 µM) | relative viability ([1]; first compound 0.06325 µM) | relative viability ([1]; first compound 0.2 µM) | relative viability ([1]; first compound 0.6325 µM) | relative viability ([1]; first compound 2 µM) | relative viability (Cabozantinib + Foretinib; first compound 0.02 µM) | relative viability (Cabozantinib + Foretinib; first compound 0.06325 µM) | relative viability (Cabozantinib + Foretinib; first compound 0.2 µM) | relative viability (Cabozantinib + Foretinib; first compound 0.6325 µM) | relative viability (Cabozantinib + Foretinib; first compound 2 µM) | relative viability (Cabozantinib + Lapatinib; first compound 0.02 µM) | relative viability (Cabozantinib + Lapatinib; first compound 0.06325 µM) | relative viability (Cabozantinib + Lapatinib; first compound 0.2 µM) | relative viability (Cabozantinib + Lapatinib; first compound 0.6325 µM) | relative viability (Cabozantinib + Lapatinib; first compound 2 µM) |
| --- | --- | --- | --- | --- | --- | --- | --- | --- | --- | --- | --- | --- | --- | --- | --- | --- | --- | --- | --- | --- |
| ChaGo-K-1 | 0.977 | 0.926 | 0.83 | 0.894 | 0.83 | 0.829 | 1.25 | 0.909 | 0.804 | 1.04 | 0.937 | 1.04 | 0.968 | 0.836 | 0.857 | – | – | – | – | – |
| EBC-1 | – | – | – | – | – | 0.673 | 0.484 | 0.221 | 0.245 | 0.173 | 0.101 | 0.104 | 0.0976 | 0.0898 | 0.114 | 0.192 | 0.17 | 0.242 | 0.195 | 0.213 |
| EKVX | 0.456 | 0.386 | 0.375 | 0.408 | 0.379 | 0.996 | 1.19 | 0.942 | 1.1 | 1 | 0.77 | 0.862 | 0.81 | 0.536 | 0.852 | 0.172 | 0.207 | 0.203 | 0.21 | 0.191 |
| EMC-BAC-2 | 0.522 | 0.543 | 0.494 | 0.566 | 0.525 | 0.982 | 1.2 | 1.01 | 1.07 | 1.17 | 1.02 | 0.973 | 1.04 | 0.982 | 0.962 | 0.841 | 0.927 | 0.88 | 0.879 | 0.973 |
| EPLC-272H | 0.337 | 0.357 | 0.352 | 0.321 | 0.359 | 0.98 | 0.937 | 0.756 | 1.04 | 1.04 | 0.77 | 0.884 | 0.515 | 0.82 | 0.782 | 0.899 | 1.22 | 0.877 | 0.97 | 0.701 |
| H3255 | 0.336 | 0.337 | 0.333 | 0.273 | 0.303 | 0.75 | 0.958 | – | 0.831 | 0.901 | 0.773 | 1.01 | – | 0.979 | 1.07 | 0.182 | 0.234 | – | 0.366 | 0.217 |
| HARA | 0.331 | 0.227 | 0.237 | 0.268 | 0.366 | 1.18 | 1.19 | 0.975 | 1.18 | 1.11 | 1.04 | 1.02 | 0.711 | 0.949 | 0.691 | 0.582 | 0.806 | 0.856 | 0.809 | 0.639 |
| HCC-15 | 0.698 | 0.72 | 0.662 | 0.547 | 0.618 | 0.974 | 1.1 | 0.995 | 1.02 | 1.09 | 1.26 | 1.13 | 1.06 | 1.04 | 1.07 | 0.85 | 0.879 | 0.783 | 0.843 | 0.965 |
| HCC-44 | 0.988 | 0.932 | 0.975 | 0.924 | 0.887 | 1.01 | 0.968 | 0.877 | 0.946 | 0.943 | – | – | – | – | – | 1.09 | 1.12 | 1 | 1.11 | 1.04 |
